Data: patent US10308986B2, “Cancer diagnosis, treatment selection and treatment” (CHILDREN'S MEDICAL CENTER CORPORATION, priority 2013, dated 2019)
Where two headings read alike, the source gives them in different places.

Columns and labels:
[1] = tested on: panel of breast cancer cell lines; experiment: Colony formation assay, IC50, panel of breast cancer cell lines; type: cell-based; conditions: for association of pattern of sensitivity across cell line panel with relative expression of BRCA1/BLM and BLM/Actin: panel of breast cancer cell lines
Protocol: Three cell lines (BT549, HCC1143, and HCC38) are normal genotype for BRCA1 and have high BLM/Actin and low ratio of BRCA1/BLM. Two cell lines (MDA231 and MDA453) are also normal genotype for BRCA1 but have relatively higher expression of BRCA1/BLM and lower BLM/actin. HCC1937 and MDA436 have homozygous mutation in BRCA1 and undetectable BRCA1/BLM, and higher expression of BLM/Actin.
A panel of cell lines was evaluated for sensitivity to various treatments as indicated by colony formation assay and calculation of IC50 values.

[2] = tested on: BT549 breast cancer cells; experiment: Colony formation assay, IC50, BT549 cells treated with siRNAs to BLM or FANCI; type: cell-based; conditions: versus scramble control
Protocol: We further treated BT549 breast cancer cells, with inherent high levels of BLM and FANCI were treated with gene-specific siRNAs to BLM or FANCI or with a scramble control.

[3] = tested on: MDA231 breast cancer cells; experiment: Colony formation assay, IC50 for cisplatin, MDA231 cells with BLM overexpression; type: cell-based
Protocol: These cells were used in experiments to assess the effect of increasing the expression of BLM. A lentivirus expression vector for HA-tagged BLM cDNA or a control vector was transfected into MDA231 cells. BLM expression was assessed by Western blot analysis for endogenous BLM or for the HA-tag in cells treated with control vector, BLM cDNA, BLM cDNA and a small molecule inhibitor of BLM helicase (BLMi), or BLM cDNA and BLM siRNA.
IC50 for cisplatin was determined by colony formation assay in MDA231 breast cancer cells treated with control vector, BLM cDNA vector, BLM cDNA plus the BLM small molecule inhibitor, and BLM cDNA plus BLM siRNA. […] Consistent with the other findings, this effect was reversed by treatment with the BLM helicase inhibitor and by siRNA knockdown of BLM.

H2AX and 53BP1 foci = experiment: Immunofluorescence assay for markers of DNA damage (H2Ax-p and 53BP1-p) in MDA231 cells; type: cell-based; conditions: cisplatin after 4 hours, compared with no cisplatin treatment
Protocol: We also performed an immunofluorescence assay for markers of DNA damage (H2Ax-p and 53BP1-p) in MDA231 cells treated with control vector, BLM cDNA, BLM cDNA+BLM inhibitor, or BLM cDNA+BLM siRNA. Overexpression of BLM results in increased H2AX and 53BP1 foci in the absence of any cisplatin treatment indicating spontaneous DNA damage. This effect is even greater in cells treated with cisplatin after 4 hours. The quantitation of foci is shown in the lower bar graphs. The addition of a small molecule BLM helicase inhibitor (Bi) or siRNA to BLM (si) blocks the effect of BLM overexpression on DNA damage foci.

[4] = tested on: triple negative breast cancer; conditions: 28 TNBC patients, neoadjuvant cisplatin as single agent (Silver et al., JCO 2010); cited from earlier work
[5] = tested on: triple negative breast cancer; conditions: TNBC patients, neoadjuvant cisplatin in combination with bevacizumab; 44 patients completed therapy (Ryan et al., JCO 2009); cited from earlier work
[6] = two BRCA1 mutated cell lines (HCC1937, MDA436) and three cell lines with low BRCA1/BLM and high BLM/actin (BT549, HCC1143, HCC38)
[7] = two cell lines with low BLM and high BRCA1/BLM (MDA231, MDA453)

SMILES	association of pattern of sensitivity across cell line panel with relative expression of BRCA1/BLM and BLM/Actin [1]	sensitivity by colony formation assay (IC50) [1, 6]	sensitivity by colony formation assay (IC50) [1, 7]	effect of siRNA knockdown of either BLM or FANCI on IC50 [2]	sensitivity of MDA231 cells ([3]; MDA231 cells with low levels of BLM)	effect of overexpression of BLM on IC50 for cisplatin ([3]; MDA231 cells, BLM cDNA vector versus control vector)	H2AX and 53BP1 foci in BLM overexpressing cells (H2AX and 53BP1 foci)	patients who achieved at least 90% reduction in tumor size [4] [%]	patients who achieved at least 90% reduction in tumor size [5] [%]
O=C(c1cc(Cc2n[nH]c(=O)c3ccccc23)ccc1F)N1CCN(C(=O)C2CC2)CC1 [Olaparib]	associated	greater sensitivity	relatively resistant						
CC(=O)O[C@H]1C(=O)[C@@]2(C)[C@H]([C@H](OC(=O)c3ccccc3)[C@]3(O)C[C@H](OC(=O)[C@H](O)[C@@H](NC(=O)c4ccccc4)c4ccccc4)C(C)=C1C3(C)C)[C@]1(OC(C)=O)CO[C@@H]1C[C@@H]2O [Paclitaxel]	no apparent association			no significant effect					
N.N.[Cl][Pt][Cl] [cisplatin, cis-diamminedichloroplatinum]	associated	greater sensitivity	relatively resistant	increased IC50 (greater resistance)	relative resistance	decrease in the IC50 (greater sensitivity)	even greater	36	39
